For data set [1], the species on record is Mus musculus. Put plainly: Effect on behavioral activity in Albino mouse assessed as inhibition of diazepam-induced loss of screen grip at 0.2 ml/10 g by hippocratic screen. Type of data set: functional, organism-based.
The species named for data set [2] is Mus musculus. As to the kind of experiment: Effect on behavioral activity in Albino mouse assessed as inhibition of diazepam-induced decrease in respiratory rate at 0.2 ml/10 g by hippocratic screen. Type of data set: functional, organism-based.
For data set [3], the species on record is Mus musculus. As to the kind of experiment: Effect on behavioral activity in Albino mouse assessed as inhibition of diazepam-induced loss of analgesia at 0.2 ml/10 g by hippocratic screen. The class given is functional, organism-based.
Data set [4] is filed under the species Mus musculus. As to the kind of experiment: Effect on behavioral activity in Albino mouse assessed as inhibition of diazepam-induced anesthesia at 0.2 ml/10 g by hippocratic screen. The class given is functional, organism-based.
Data set [5] is filed under the species Mus musculus. Put plainly: Effect on behavioral activity in Albino mouse assessed as inhibition of diazepam-induced paralysis at 0.2 ml/10 g by hippocratic screen. The class given is functional, organism-based.
The species entered for data set [6] is Mus musculus. As to the kind of experiment: Effect on behavioral activity in Albino mouse assessed as inhibition of diazepam-induced startle reaction at 0.2 ml/10 g by hippocratic screen. The class given is functional, organism-based.
Data set [7] addresses T1, GABA-A receptor; alpha-1/beta-2/gamma-2 (Homo sapiens, UniProt P14867+P18507+P47870).
T1 sequence (P14867 whole entry): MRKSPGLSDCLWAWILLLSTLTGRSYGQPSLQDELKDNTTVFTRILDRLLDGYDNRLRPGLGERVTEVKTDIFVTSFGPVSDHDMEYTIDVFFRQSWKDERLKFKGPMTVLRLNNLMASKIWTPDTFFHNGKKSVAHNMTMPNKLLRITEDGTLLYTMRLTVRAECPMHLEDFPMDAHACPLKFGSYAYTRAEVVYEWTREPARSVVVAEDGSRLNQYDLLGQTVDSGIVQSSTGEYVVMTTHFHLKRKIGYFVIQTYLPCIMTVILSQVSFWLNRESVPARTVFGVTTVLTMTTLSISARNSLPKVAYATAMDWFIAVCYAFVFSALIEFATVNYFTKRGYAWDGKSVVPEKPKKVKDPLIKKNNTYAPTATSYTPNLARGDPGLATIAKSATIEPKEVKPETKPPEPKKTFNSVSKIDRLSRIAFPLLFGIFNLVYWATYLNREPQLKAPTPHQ
T1 sequence (P47870 whole entry): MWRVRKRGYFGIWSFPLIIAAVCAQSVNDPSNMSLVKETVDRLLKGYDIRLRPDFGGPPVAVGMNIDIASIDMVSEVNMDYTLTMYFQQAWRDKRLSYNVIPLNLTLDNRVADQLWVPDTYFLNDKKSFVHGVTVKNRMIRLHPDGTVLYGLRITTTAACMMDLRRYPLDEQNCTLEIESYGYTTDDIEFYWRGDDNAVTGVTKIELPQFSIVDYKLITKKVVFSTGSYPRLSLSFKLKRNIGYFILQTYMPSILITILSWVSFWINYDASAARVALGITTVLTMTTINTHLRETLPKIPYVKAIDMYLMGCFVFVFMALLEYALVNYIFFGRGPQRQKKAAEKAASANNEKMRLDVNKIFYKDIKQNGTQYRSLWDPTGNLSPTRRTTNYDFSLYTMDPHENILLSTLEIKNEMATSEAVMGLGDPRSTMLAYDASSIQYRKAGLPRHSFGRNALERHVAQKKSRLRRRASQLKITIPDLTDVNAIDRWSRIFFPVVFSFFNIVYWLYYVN
T1 sequence (P18507 whole entry): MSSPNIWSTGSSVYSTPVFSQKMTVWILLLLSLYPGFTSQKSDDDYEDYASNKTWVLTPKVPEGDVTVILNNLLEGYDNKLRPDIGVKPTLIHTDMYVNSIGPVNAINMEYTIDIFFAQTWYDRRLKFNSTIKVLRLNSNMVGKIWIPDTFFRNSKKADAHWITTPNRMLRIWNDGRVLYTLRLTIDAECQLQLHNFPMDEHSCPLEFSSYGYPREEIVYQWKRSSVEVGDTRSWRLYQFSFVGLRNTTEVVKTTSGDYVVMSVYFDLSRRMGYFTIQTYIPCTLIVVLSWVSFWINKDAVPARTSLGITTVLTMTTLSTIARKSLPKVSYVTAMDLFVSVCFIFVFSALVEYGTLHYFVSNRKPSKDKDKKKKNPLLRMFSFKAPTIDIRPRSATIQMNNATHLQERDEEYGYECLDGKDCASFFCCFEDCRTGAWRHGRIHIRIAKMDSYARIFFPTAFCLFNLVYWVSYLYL
As to the kind of experiment: Displacement of [3H]flunitrezepam from GABA-A alpha-1-beta-2-gamma-2 receptor by liquid scintillation counting. Type of data set: protein-complex assay.

In data set [8] the target is T2, GABA A receptor alpha-2/beta-2/gamma-2 (Homo sapiens, UniProt P18507+P47869+P47870).
T2 sequence (P47870 whole entry): T1 sequence (P47870 whole entry)
T2 sequence (P18507 whole entry): T1 sequence (P18507 whole entry)
T2 sequence (P47869 whole entry): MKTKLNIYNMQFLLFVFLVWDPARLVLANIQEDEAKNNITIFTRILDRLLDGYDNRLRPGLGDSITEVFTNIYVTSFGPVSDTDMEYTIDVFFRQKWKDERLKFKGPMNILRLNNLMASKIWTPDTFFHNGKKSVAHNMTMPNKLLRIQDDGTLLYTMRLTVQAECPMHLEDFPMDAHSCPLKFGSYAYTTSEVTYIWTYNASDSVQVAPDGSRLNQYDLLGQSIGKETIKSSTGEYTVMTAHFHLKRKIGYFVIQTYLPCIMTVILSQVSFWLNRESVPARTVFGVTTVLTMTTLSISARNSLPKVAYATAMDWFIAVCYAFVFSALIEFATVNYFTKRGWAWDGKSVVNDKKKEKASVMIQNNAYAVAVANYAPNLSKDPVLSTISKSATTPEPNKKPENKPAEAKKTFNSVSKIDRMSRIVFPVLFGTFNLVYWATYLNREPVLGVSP
Put plainly: Displacement of [3H]flunitrezepam from GABA-A alpha-2-beta-2-gamma-2 receptor by liquid scintillation counting. The class given is protein-complex assay. For orientation: Displacement assays read how much labelled ligand stays bound in the presence of the test substance.

Data set [9] deals with Mus musculus. As to the kind of experiment: CNS toxicity in Albino mouse assessed as anesthetic response at 0.2 ml/10 g by hippocratic screen. Type of data set: organism-based. The conditions noted are these: in vivo.
Data set [10] is filed under the species Mus musculus. As to the kind of experiment: CNS toxicity in Albino mouse assessed as decrease in motor activity at 0.2 ml/10 g by hippocratic screen. Type of data set: organism-based. The conditions noted are these: in vivo.
For data set [11], the species on record is Mus musculus. As to the kind of experiment: CNS toxicity in Albino mouse assessed as ataxia at 0.2 ml/10 g by hippocratic screen. The class given is organism-based. The conditions noted are these: in vivo.
Data set [12] is filed under the species Mus musculus. Put plainly: CNS toxicity in Albino mouse assessed as loss of righting reflex at 0.2 ml/10 g by hippocratic screen. The conditions noted are these: in vivo. The class given is organism-based.
The species named for data set [13] is Mus musculus. As to the kind of experiment: CNS toxicity in Albino mouse assessed as loss of screen grip at 0.2 ml/10 g by hippocratic screen. Type of data set: organism-based. The conditions noted are these: in vivo.
The species entered for data set [14] is Mus musculus. Put plainly: CNS toxicity in Albino mouse assessed as change in respiratory rate at 0.2 ml/10 g by hippocratic screen. Type of data set: organism-based. The conditions noted are these: in vivo.
The species named for data set [15] is Mus musculus. As to the kind of experiment: CNS toxicity in Albino mouse assessed as loss of analgesic activity at 0.2 ml/10 g by hippocratic screen. Type of data set: organism-based. The conditions noted are these: in vivo.
The species entered for data set [16] is Mus musculus. As to the kind of experiment: CNS toxicity in Albino mouse assessed as paralysis at 0.2 ml/10 g by hippocratic screen. The class given is organism-based. The conditions noted are these: in vivo.
The species named for data set [17] is Mus musculus. Put plainly: CNS toxicity in Albino mouse assessed as startle reaction at 0.2 ml/10 g by hippocratic screen. The conditions noted are these: in vivo. Type of data set: organism-based.
For data set [18], the species on record is Mus musculus. Put plainly: Effect on behavioral activity in Albino mouse assessed as inhibition of diazepam-induced decrease in motor activity at 0.2 ml/10 g for 10 to 15 mins by hippocratic screen. The class given is functional, organism-based.
The species entered for data set [19] is Mus musculus. Put plainly: Effect on behavioral activity in Albino mouse assessed as inhibition of diazepam-induced ataxia at 0.2 ml/10 g after 5 mins by hippocratic screen. Type of data set: functional, organism-based.

The source made the active and inactive calls. No cut-off for these calls is given here.

`COc1ccc2c3c(oc2c1)C(=O)Nc1cccc[n+]1C3.[Cl-]`: the outcome in the data set listed under Mus musculus [1], in the data set filed under Mus musculus [2], in the data set listed under Mus musculus [3], in the data set filed under Mus musculus [4], in the data set listed under Mus musculus [5] and in the data set filed under Mus musculus [6] was inactive. The result in the data set listed under Mus musculus [19] was inactive. The inhibition constant Ki (commonly the equilibrium dissociation constant of an inhibitor or competing ligand from its target) in data set [7] is 0.746 µM; in data set [8], 8.08 µM. Also, the Activity entry in the data set on Mus musculus [9], in the data set listed under Mus musculus [10], in the data set listed under Mus musculus [11], in the data set filed under Mus musculus [12], in the data set filed under Mus musculus [13] and in the data set listed under Mus musculus [14] was “Non-toxic” throughout. Besides, the Activity entry in the data set listed under Mus musculus [15], in the data set listed under Mus musculus [16] and in the data set filed under Mus musculus [17] was “Non-toxic” in each case. For the same compound, the outcome in the data set filed under Mus musculus [18] was Active.

For the origin of these results see ChEMBL document CHEMBL1157703, “Synthesis, pharmacological studies and molecular modeling of some tetracyclic 1,3-diazepinium chlorides” (Bioorg Med Chem, 2010).
